Measurements reported in article PMC8591507, “Progesterone receptor membrane component 1 (PGRMC1) binds and stabilizes cytochromes P450 through a heme-independent mechanism” (The Journal of Biological Chemistry, 2021).

Assays:
[1] = target: T1, PGRMC1 (progesterone receptor membrane component 1) (Homo sapiens, UniProt O00264); assay: spectrophotometric hemin titration (A394), Hill fit; assay type: binding
T1 construct: recombinant truncated human PGRMC1 (aa 43–195), His tag removed by thrombin

[2] = target: T2, Y113F PGRMC1 (progesterone receptor membrane component 1) (Homo sapiens, UniProt O00264, Y113F); assay: as above; assay type: binding
T2 construct: recombinant truncated human PGRMC1 (aa 43–195), His tag removed by thrombin
T2 sequence (O00264 43-195 Y113F): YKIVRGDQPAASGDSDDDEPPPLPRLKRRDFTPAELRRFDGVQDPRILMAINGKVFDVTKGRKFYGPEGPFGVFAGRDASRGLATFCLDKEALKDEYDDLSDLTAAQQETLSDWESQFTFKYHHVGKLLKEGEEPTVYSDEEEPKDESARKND

T1 sequence (O00264 43-195): as the sequence (O00264 43-195 Y113F) above, with F71Y counted along it

C=CC1=C(C)C2=Cc3c(C=C)c(C)c4[n]3[Fe]([Cl])[n]3c(c(C)c(CCC(=O)O)c3=CC3=NC(=C4)C(C)=C3CCC(=O)O)=CC1=N2 [hemin]
Kd [1]: 4.9 ± 0.33 µM
Kd [2]: 4.7 ± 0.42 µM
